Data taken from patent publication US5753675A, “Quinoline analogs of mevalonolactone and derivatives thereof” (Novartis Pharmaceuticals Corporation, priority 1990, dated 1998).
Where two headings read alike, the source gives them in different places.

Columns and labels:
HMG-CoA reductase = target: T1, HMG-CoA reductase (Rattus norvegicus, UniProt P51639); experiment: Test A. In Vitro Microsomal Assay of HMG-CoA Reductase Inhibition; type: biochemical; conditions: rat liver microsomal suspensions, [14C]HMG-CoA substrate; test concentrations 0.05-1000 μmolar; read-out: IC50 (concentration calculated to produce a 50% inhibition of HMG-CoA reductase activity)
T1 construct: rat liver microsomal suspensions, freshly prepared from male Sprague-Dawley rats; from tissue; host or cells: rat liver microsomes (male Sprague-Dawley, 150-225 g)
T1 sequence (P51639 1-887): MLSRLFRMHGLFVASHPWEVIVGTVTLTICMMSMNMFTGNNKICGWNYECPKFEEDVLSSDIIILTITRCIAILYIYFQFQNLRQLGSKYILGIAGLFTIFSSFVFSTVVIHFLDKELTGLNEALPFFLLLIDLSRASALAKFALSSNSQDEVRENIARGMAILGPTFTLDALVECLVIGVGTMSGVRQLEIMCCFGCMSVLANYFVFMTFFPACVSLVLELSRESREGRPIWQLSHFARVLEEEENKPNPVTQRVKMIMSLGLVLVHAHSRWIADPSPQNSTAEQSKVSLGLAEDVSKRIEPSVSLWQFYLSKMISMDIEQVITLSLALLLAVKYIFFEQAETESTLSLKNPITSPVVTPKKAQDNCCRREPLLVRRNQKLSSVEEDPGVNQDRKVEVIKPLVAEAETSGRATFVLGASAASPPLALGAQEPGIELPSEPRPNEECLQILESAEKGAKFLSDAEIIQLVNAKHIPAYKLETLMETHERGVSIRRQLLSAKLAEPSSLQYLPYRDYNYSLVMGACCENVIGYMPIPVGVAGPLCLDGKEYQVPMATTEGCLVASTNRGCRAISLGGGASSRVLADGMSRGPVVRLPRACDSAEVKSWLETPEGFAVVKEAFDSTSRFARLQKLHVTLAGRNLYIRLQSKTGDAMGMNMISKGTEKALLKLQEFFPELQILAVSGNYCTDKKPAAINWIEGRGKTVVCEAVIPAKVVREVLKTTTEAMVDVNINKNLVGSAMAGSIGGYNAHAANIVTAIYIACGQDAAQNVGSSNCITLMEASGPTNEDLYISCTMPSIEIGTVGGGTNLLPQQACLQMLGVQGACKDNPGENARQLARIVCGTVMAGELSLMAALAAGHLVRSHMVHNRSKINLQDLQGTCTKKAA
Procedure: Test A. In Vitro Microsomal Assay of HMG-CoA Reductase Inhibition:
200 μl. aliquots (1.08-1.50 mg./ml.) of rat liver microsomal suspensions, freshly prepared from male Sprague-Dawley rats (150-225 g. body weight), in Buffer A with 10 mmol. dithiothreitol are incubated with 10 μl. of a solution of the test substance in dimethylacetamide and assayed for HMG-CoA reductase activity as described in Ackerman et al., J. Lipid Res. 18, 408-413 (1977). In the assay the microsomes are the source of the HMG-CoA reductase enzyme which catalyzes the reduction of HMG-CoA to mevalonate. The assay employs a chloroform extraction or a Dowex® 1X8 (200-400 mesh, formate form) ion exchange column to separate the product, [^14 C]mevalonolactone, formed by the HMG-CoA reductase reduction of the substrate, [^14 C]HMG-CoA. [^3 H]mevalonolactone is added as an internal reference. Inhibition of HMG-CoA reductase is calculated from the decrease in specific activity ([^14 C/^3 H]mevalonate) of test groups compared to controls.
IC50 is the concentration of the test substance in the assay system calculated to produce a 50% inhibition of HMG-CoA reductase activity. The tests are run at concentrations of test substance between 0.05 and 1000 μmolar.

[1] = test system: 3β-hydroxysterol synthesis (cholesterol biosynthesis); experiment: Test B. In Vivo Cholesterol Biosynthesis Inhibition Test; conditions: Rattus norvegicus, ip, 1 h, read-out: ED50 (inhibition of 3β-hydroxysterol synthesis)
Procedure: Test B. In Vivo Cholesterol Biosynthesis Inhibition Test: In vivo studies utilize male Wistar Royal Hart rats weighing 150±20 g. which have been kept for 7-10 days on an altered light cycle (6:30 A.M.-6:30 P.M. dark) housed two per cage and fed powdered Purina Rat Chow and water ad libitum. Three hours before the diurnal maximum of cholesterol synthesis at mid-dark, the rats are administered the test substance (e.g., 0.01-20 mg./kg. body weight) dissolved or as a suspension in 0.5% carboxymethyl-cellulose in a volume of 1 ml./100 g. body weight. Controls receive vehicle alone. One hour after receiving the test substance, the rats are injected intraperitoneally with about 25 μCi/100 g. body weight of sodium [1-^14 C]acetate 1-3 mCi/mmol. Two hours after mid-dark, blood samples are obtained under sodium hexobarbital anesthesia, and the serum is separated by centrifugation. […] The [^14 C]digitonides are then counted by liquid scintillation spectrometry. […] Inhibition of 3β-hydroxysterol synthesis is calculated from the reduction in the nCi of 3β-hydroxysterols formed from test groups compared to controls.

[2] = male Wistar Royal Hart rats, in 0.5% carboxymethyl-cellulose, sodium [1-14C]acetate i.p. one hour after test substance, serum

IC50 (HMG-CoA reductase)	SMILES	ED50 [1, 2]	ED50 [1]
410 nM	CCOC(=O)C[C@H](O)C[C@H](O)/C=C/c1c(C(C)C)nc2ccccc2c1-c1ccc(F)cc1 (relative stereo) [Example 3C]	0.49 mg/kg	–
–	CC[C@H](C)C(=O)O[C@H]1CCC=C2C=C[C@H](C)[C@H](CC[C@@H]3C[C@@H](O)CC(=O)O3)[C@H]21 [Compactin, reference compound]	3.5 mg/kg	–
530 nM	CC(C)c1nc2ccccc2c(-c2ccc(F)cc2)c1/C=C/C(O)CC(O)CC(=O)O (stereo not drawn) [Example 4]	> 1 mg/kg	–
–	CC[C@H](C)C(=O)O[C@H]1C[C@@H](C)C=C2C=C[C@H](C)[C@H](CC[C@@H]3C[C@@H](O)CC(=O)O3)[C@H]21 [Mevinolin, reference compound]	–	0.41 mg/kg
